Where “and” joins values, the source holds several entries; their conditions need not be identical. Identical values can stand only once.
Key:
[1] = test system: RNase A, 1, and T1; test: Anti-RNase antibodies / Specific Anti-RNase Cocktail with added non-antibody inhibitor; format: biochemical; conditions: for effect on action of Specific Anti-RNase Cocktail against RNase A, 1, and T1: detergent added to cocktail at 0.1% to 1%
Procedure: (§1) The activity of an anti-nuclease cocktail is readily determined using radiolabeled RNA or DNA to detect the inhibition of nuclease by anti-nuclease antibodies in the anti-nuclease cocktail. […] Assay buffer, nuclease and an anti-nuclease cocktail are then added to 0.5 ml microfuge tubes. A mixture comprising assay buffer, RNA or DNA and radiolabeled RNA or DNA is added to the microfuge tubes, and the tubes are vortexed and microfuged. After incubation of the tubes at 37° C. for 30 minutes, a portion of the tube contents is removed and placed into gel loading buffer. After mixing, the combination is loaded onto a gel, typically a 8M urea/5% acrylamide gel, which is exposed to film.
(§2) Radiolabeled RNA was used to detect the inhibition of RNase A, RNase T1, and RNase 1 by specific antibodies.
(§3) The “MIX” was prepared by combining 10× Assay Buffer (0.9 μl/rxn), 5 mg/ml yeast RNA (0.4 μl/rxn), ^32P-labeled β actin RNA (1 μl/rxn), and nuclease-free H2O (6.7 μl/rxn), for a total of 9 μl/rxn.
(§4) 1× Assay Buffer was added first. Then Specific RNase Cocktail, Specific Anti-RNase Cocktail and MIX were added. The tubes are vortexed and microfuged, then incubated at 37° C. for 30 min (Table 9).
(§5) At the end of the incubation time, 10 μl of solution was removed from the tube and placed into 10 μl Gel Loading Buffer II. The combination was mixed thoroughly and loaded onto a 8M urea/5% acrylamide gel. The gel was exposed to film for 30 min. at −80° C. with an intensifying screen.

[2] = target: nuclease (Homo sapiens, UniProt P03950); test: Ki of Lead 1 and Lead 2 analogs (Tables 1 and 2); format: biochemical; conditions: Table 1, Lead 1 Analog List
[3] = test system: diluted pancreas lysate; test: Intactness of total RNA (RNA LabChip), diluted pancreas lysate; format: biochemical, mouse
Procedure: A total of 100 pg/ul e. […].
Pancreatic lysate (0.1 mg/ml) was diluted 1:20,000 in 24 mM Hepes, pH 7.2, 50 mM NaCl, 1 mM MgCl2 and pre-incubated with either 1% SDS or 6.25 mM OVA for 30 s prior to the addition of 2 ug mouse liver total RNA. Reactions were incubated at 25 C for an additional 4 min, quenched, and analyzed on an RNA LabChip.
Mouse pancreatic tissue (5 mg) was disrupted in 50 ul of 24 mM Hepes, pH 7.2, 50 mM NaCl, 1 mM MgCl2. The diluted lysate (1:20,000) was pre-incubated with 50 uM Benzopurpurin B (BpB) for 30 sec and then added to 100 ng/ul mouse liver total RNA (Ambion) and incubated at 23 C for an additional 4 min. Samples were quenched in a guanidinium lysis buffer, and the RNA purified via MEGAclear™ MAG-96 and eluted with 20 ul nuclease-free water. […] These experiments were conducted in the same fashion except that 100 uM BpB was employed. The sample (1 ul) was analyzed by 2100 BioAnalyzer software (Agilent) after separation on an RNA LabChip.
Mouse pancreatic tissue (5 mg) was dounced in 50 ul of 24 mM Hepes, pH 7.2, 50 mM NaCl, 1 mM MgCl2. A diluted lysate (1:20,000) was pre-incubated with 100 uM BpB or the analog Benzopurpurin 4B (Bp4B) for 30 sec and then added to 100 ng/ul mouse liver total RNA (Ambion) and incubated at 23 C for an additional 4 min. Samples were quenched in a guanidinium lysis buffer, and the RNA purified via MEGAclear™ MAG-96 and eluted with 20 ul nuclease-free water. The sample (1 ul) was analyzed by 2100 BioAnalyzer software (Agilent) after separation on an RNA LabChip.
Pancreatic tissue (5 mg) was dounced in 50 ul of 24 mM Hepes, pH 7.2, 50 mM NaCl, 1 mM MgCl2. The lysate was diluted (1:20,000) and then pre-incubated with 200 uM of 467929. […] All samples were pre-incubated for 30 sec before being added to 100 ng/ul mouse liver total RNA (Ambion) and incubated at 23C for an additional 4 min. The RNA was then immediately purified via MEGAclear™ MAG-96 and eluted with 20 ul nuclease-free water. The recovered RNA (1 ul) was analyzed by 2100 BioAnalyzer software after separation on an RNA LabChip.

[4] = target: DNase I (Bos taurus, UniProt P00639); test: Lambda DNA digestion assay with DNase I; format: biochemical; conditions: 0.1 U DNase, inhibitor at 5×Ki
Source text: One application for small molecule RNase inhibitors is as an RNA control agent during enzymatic manipulation of solutions containing RNA. These reactions include in vitro transcription, in vitro translation, DNase digestion, and reverse transcription, among others. […] […] […] All reactions were quenched with EDTA and the cleavage products resolved on a 1% agarose gel.
As a result, compounds such as #467929, 140553, and 180582 may have utility in curbing the activity of residual RNases that may carry over from RNA isolation methods during DNase treatments of the RNA.

[5] = target: MMLV RT RNase H (Moloney murine leukemia virus, UniProt P03355); test: RT-based RNase H cleavage of RNA:DNA hybrid; format: biochemical
Procedure: As described above, Chembridge compound #467929 offered protection from several RNA-specific endonucleolytic activities. […] A 20-mer DNA oligonucleotide was asymmetrically annealed to a 1500 base synthetic RNA to create an RNA:DNA duplex substrate for RNase H. Reactions were initiated with 10 U of MMLV RT in 1× RT buffer (50 mM TrisCl pH 8.3, 75 mM KC, 3 mM MgCl2, 5 mM DTT) containing 500 ng/ul RNA:DNA hybrid. All reactions contained 5% DMSO either with or without the small molecule RNase inhibitor. Samples were incubated for 5 min at 37 C, and quenched with EDTA. Products were resolved on an RNA LabChip. Cleavage products were observed as two equally represented RNA species of 1000 and 500 bases. Product length and yield were determined using the 2100 BioAnalyzer software (Agilent). Table 18 details the level of inhibition of MMLV RT RNase H that is observed as a function of the concentration of compounds 467929 and 227726.

[6] = test system: one-step RT-PCR with MMLV-RT and SuperTaq, human CDC-2 mRNA; test: One-step qRT-PCR tolerance, human CDC-2; format: biochemical
Procedure: The compatibility of #467929 and 227726 were tested in Ambion's MessageSensor RT-PCR Kit according to the supplier's instructions and using primers/probe designed to amplify a ˜100 nt amplicon from the human CDC-2 mRNA. The reaction conditions were: 20-ul one-step RT-PCR with MMLV-RT (0.4 U/ul final) and SuperTaq (0.04 U/ul final). The cycling conditions were: Stage 1. 42 C for 15 minutes Stage 2. 95 C for 5 min, Stage 3. 95 C-15 sec and 60 C-60 sec where Stage 3 is repeated 40 times. The input template was HeLa-S3 total RNA at either 1 ng or 10 ng/reaction. […] Consequently, these compounds may have utility in controlling any RNA degradation that might occur during the cDNA synthesis step of RT-PCR.

[7] = target: T1, RNase A (Bos taurus, UniProt P61823); test: Radiolabeled RNA probe degradation gel assay, RNase A; format: biochemical
T1 sequence (P61823 27-150): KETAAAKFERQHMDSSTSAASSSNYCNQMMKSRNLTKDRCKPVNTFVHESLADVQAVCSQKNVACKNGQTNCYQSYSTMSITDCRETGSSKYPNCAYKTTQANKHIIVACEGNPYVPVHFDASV
Procedure: as §1, §2, §3, §4, §5

Sequence of DNase I (P00639 23-282): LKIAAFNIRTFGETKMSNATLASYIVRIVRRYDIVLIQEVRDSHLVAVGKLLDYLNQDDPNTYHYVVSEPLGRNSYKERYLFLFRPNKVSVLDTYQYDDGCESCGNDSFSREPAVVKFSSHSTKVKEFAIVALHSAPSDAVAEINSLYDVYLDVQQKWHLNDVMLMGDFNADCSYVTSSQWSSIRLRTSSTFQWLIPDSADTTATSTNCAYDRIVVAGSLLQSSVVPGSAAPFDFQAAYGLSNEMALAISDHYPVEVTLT
Sequence of nuclease (P03950 25-147): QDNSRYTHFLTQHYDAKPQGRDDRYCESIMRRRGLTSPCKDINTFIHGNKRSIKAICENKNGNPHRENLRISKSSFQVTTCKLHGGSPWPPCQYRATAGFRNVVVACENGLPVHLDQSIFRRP

C[C@H](CCC(=O)NCCC[N+](C)(C)CCCS(=O)(=O)[O-])[C@H]1CC[C@H]2[C@@H]3[C@H](O)C[C@@H]4C[C@H](O)CC[C@]4(C)[C@H]3C[C@H](O)[C@]12C [CHAPS]
effect on action of Specific Anti-RNase Cocktail against RNase A, 1, and T1 [1]: strengthened the action of Specific Anti-Rnase Cocktail against RNase A, 1, and T1.

O=S(=O)(O)c1ccc(-c2ccc(/N=N/c3c(O)ccc4cc(S(=O)(=O)O)ccc34)cc2)cc1 [D726712]
Ki [2]: ~350 µM

[Cl-].[Cl-].[Mg+2] [MgCl2]
effect of mixing with Specific Anti-RNase Cocktail ([1]; MgCl2 mixed together with cocktail): best

CC(=O)Nc1ccc(N=Nc2c(S(=O)(=O)O)cc3cc(S(=O)(=O)O)cc(NC(C)=O)c3c2O)cc1 [acid violet7, acid violet 7]
Ki [2]: 71 µM

O=C(O)CC(O)(CC(=O)O)C(=O)O [citrate, reference compound]
protection of total RNA from degradation ([3]; 50 mm citrate, pancreas lysate 1:20,000, e. coli total rna, room temperature 4 min): significant protection

Nc1cccc(C(=O)Nc2ccc3c(O)cc(S(=O)(=O)O)cc3c2)c1 [compound 1743]
KI [2]: in-activeat 75uM

Nc1c(OCC(=O)O)ccc2cc(S(=O)(=O)O)ccc12 [compound 16163]
KI [2]: in-activeat 75uM

O=C(Nc1cc(S(=O)(=O)O)cc2cc(S(=O)(=O)O)cc(O)c12)c1ccccc1 [compound 16169]
KI [2]: in-activeat 75uM

Cc1cc(/N=N/c2ccc(S(=O)(=O)O)c3ccccc23)ccc1O [compound 45557]
Ki [2]: > 500 µM

Cc1ccccc1/N=N/c1ccc(/N=N/c2c(O)ccc3cc(S(=O)(=O)O)cc(S(=O)(=O)O)c23)c(C)c1 [compound 45601]
Ki [2]: 122 µM

O=C(Nc1ccc(/N=N/c2ccc3cc(S(=O)(=O)O)cc(S(=O)(=O)O)c3c2)cc1)c1ccc(/N=N/c2c(O)ccc3cc(S(=O)(=O)O)cc(S(=O)(=O)O)c23)cc1 [compound 65841]
Ki [2]: 5 µM

O=S(=O)(O)c1cc(O)c2c(/N=C/c3ccccc3O)cc(S(=O)(=O)O)cc2c1 [compound 88947]
KI [2]: in-activeat 75uM

O=C(O)C1=NN(c2ccccc2)C(=O)\C1=C/C=C/C=C/C1C(=O)N(c2ccccc2)N=C1C(=O)O (stereo not drawn) [compound 102704, 4-[5-(3-carboxy-5-oxo-1-phe-nyl-1,5-dihydro-4H-pyra-zol-4-ylidene)-1,3-penta-dien-1-yl]-5-hy-droxy-1-phenyl-1H-pyra-zole-3-carboxylic acid]
DNase inhibition [4]: modestly inhibitory

Cc1ccc(C)n1-c1cccc(C(=O)O)c1 [compound 128773, 3-(2,5-dimethyl-1H-pyr-rol-1-yl)benzoic acid]
DNase inhibition [4]: modestly inhibitory

O=C(COc1ccc(I)cc1)c1c(O)cc(O)cc1O [compound 140553, 2-(4-iodo-phenoxy)-1-(2,4,6-tri-hydroxyphenyl)etha-none]
DNase inhibition [4]: little or no DNase inhibition

Cc1ccc(S(=O)(=O)Nc2ccc(Cc3ccc(NS(=O)(=O)c4ccc(C)cc4)c(C(=O)O)c3)cc2C(=O)O)cc1 [compound 180582, 3,3′-methylenebis(6-[4-meth-ylphenylsulfonyl]a-mino)benzoic acid]
DNase inhibition [4]: little or no DNase inhibition

O=C(N/N=C(\c1ccccc1)c1ccncc1)c1ccccc1 [compound 227726, N′-[phenyl(4-pyri-dinyl)meth-ylene]benzohydrazide]
% Cleavage ([5]; inhibitor 100 uM): 45%
% Cleavage ([5]; inhibitor 524 uM): 43%
% Cleavage ([5]; inhibitor 1000 uM): 47%
DNase inhibition [4]: modestly inhibitory
concentration tolerated in RT-PCR [6]: at least 1.3 mM
Cycle Threshold ([6]; Input RNA = 1 ng, inhibitor 130 uM): 26.01 and 26.08
Cycle Threshold ([6]; Input RNA = 1 ng, inhibitor 655 uM): 26.14 and 26.18
Cycle Threshold ([6]; Input RNA = 1 ng, inhibitor 1.3 mM): 26.08 and 26.18
Cycle Threshold ([6]; Input RNA = 10 ng, inhibitor 130 uM): 23.18 and 23.24
Cycle Threshold ([6]; Input RNA = 10 ng, inhibitor 655 uM): 23.01
Cycle Threshold ([6]; Input RNA = 10 ng, inhibitor 1.3 mM): 23.02 and 23.04

N#CS.N=C(N)N [guanidine thiocyanate]
effect on Specific Anti-RNase Cocktail [1]: more inhibitory against different antibodies.

NCCCCNCCCN [spermidine]
effect on anti-RNase A, 1, and T1 activity of Specific Anti-RNase Cocktail ([1]; 5 mM spermidine mixed with cocktail): 5 Mm spermidine mixed with Specific Anti-RNase Cocktail enhanced anti-RNase

NC(N)=O [urea]
concentration that inhibited RNase A activity [7]: 6 M urea inhibited RNase A activity. This concentration of urea added to the Specific
effect on action of Specific Anti-RNase Cocktail ([1]; 6 M urea added to cocktail): Anti-Rnase Cocktail strengthened the action of Specific Anti-RNase Cocktail.

NP-40
effect on action of Specific Anti-RNase Cocktail against RNase A, 1, and T1 [1]: strengthened the action of Specific Anti-Rnase Cocktail against RNase A, 1, and T1.

Triton X-100
effect on action of Specific Anti-RNase Cocktail against RNase A, 1, and T1 [1]: strengthened the action of Specific Anti-Rnase Cocktail against RNase A, 1, and T1.

cefsulodin [reference compound]
Ki [2]: 201 µM

eriochrome black T [erio-chromeblack T]
Ki [2]: 50 µM

oligovinylsulfonic acid [OVA, reference compound]
protection of RNA from degradation ([3]; 6.25 mM OVA, pancreatic lysate 1:20,000, mouse liver total RNA, 25 C 4 min): help remedy RNA degradation

Reference: patent US7264932B2, “Nuclease inhibitor cocktail” (Applera Corporation, priority 1999, dated 2007)
